Reference: PubChem BioAssay AID1259408 (Genetic Toxicology Data Bank (GENE-TOX), 2018)
Active and inactive are the calls of the source. How the calls were made is not given here.

Tested on: GENE-TOX genotoxicity assays, various organisms and cells
Assay: GENE-TOX mutagenicity studies
Conditions: for call: Assay Type: In vivo carcinogenicity studies
[1] = Species/Cell Type: Saccharomyces cerevisiae, Assay Type: Mitotic recombination or gene conversion, Assay Code: YEC-, Evaluation Type: Evaluation A (Pre-1980)
[2] = Species/Cell Type: Drosophila melanogaster, Assay Type: Sex-linked recessive lethal gene mutation, Assay Code: SRL+, Evaluation Type: Evaluation A (Pre-1980)
[3] = Species/Cell Type: Vicia faba, Assay Type: Chromosome aberrations, Assay Code: VIC+D, Dose Response: With dose response, Evaluation Type: Evaluation A (Pre-1980)
[4] = Species/Cell Type: Bacillus subtilis (H17 vs M45), Assay Type: Rec-assay, spot test, DNA effects (bacterial DNA repair), Assay Code: REWT, Evaluation Type: Evaluation A (Pre-1980)
[5] = Species/Cell Type: Salmonella typhimurium (one or more of the five standard strains: TA98, TA100, TA1535, TA1537, and TA1538), Assay Type: Histidine reverse gene mutation, Ames assay, Assay Code: SAL+, Evaluation Type: Evaluation A (Pre-1980)
[6] = Species/Cell Type: Drosophila melanogaster, Assay Type: Aneuploidy, partial sex chromosome loss, chromosome aberrations, Assay Code: DAPT, Evaluation Type: Evaluation A (Pre-1980)
[7] = Species/Cell Type: Salmonella typhimurium (one or more of the five standard strains: TA98, TA100, TA1535, TA1537, and TA1538), Assay Type: Histidine reverse gene mutation, Ames assay, Assay Code: SAL+*, Activation: With metabolic activation, Evaluation Type: Evaluation A (Pre-1980)
[8] = Species/Cell Type: Syrian hamster embryo (SA7/SHE) cells, Assay Type: Cell transformation, viral enhanced, Assay Code: CT7+, Evaluation Type: Evaluation A (Pre-1980)
[9] = Species/Cell Type: Salmonella typhimurium (one or more of the five standard strains: TA98, TA100, TA1535, TA1537, and TA1538), Assay Type: Histidine reverse gene mutation, Ames assay, Assay Code: SALT, Evaluation Type: Evaluation A (Pre-1980)
[10] = Species/Cell Type: Allium cepa, Assay Type: Chromosome aberrations, Assay Code: ALC+, Evaluation Type: Evaluation A (Pre-1980)
[11] = Species/Cell Type: Mammalian polychromatic erythrocytes, Assay Type: Micronucleus test, chromosome aberrations, Assay Code: MNT+, Evaluation Type: Evaluation B (Post-1980)
[12] = Species/Cell Type: Neurospora crassa, Assay Type: Forward gene mutation, Assay Code: NEF+, Evaluation Type: Evaluation A (Pre-1980)
[13] = Species/Cell Type: Mammalian polychromatic erythrocytes, Assay Type: Micronucleus test, chromosome aberrations, Assay Code: MNT+U, Dose Response: Unconfirmed positive response, Evaluation Type: Evaluation B (Post-1980)
[14] = Species/Cell Type: Human, Assay Type: Sister-chromatid exchange (SCE) in vitro, Assay Code: SC1+D, Dose Response: With dose response, Evaluation Type: Evaluation B (Post-1980)
[15] = Species/Cell Type: Human lymphocytes, Assay Type: Sister-chromatid exchange (SCE) in vitro, Assay Code: SCL+D, Dose Response: With dose response, Evaluation Type: Evaluation B (Post-1980)

## OOC1CCCc2ccccc21 (configuration not stated)
[1]
  mutagenic call: inactive; negative

## CS(=O)(=O)OCCCl
Species/Cell Type: Arabidopsis species, Assay Type: Gene mutation, Assay Code: ARM+, Evaluation Type: Evaluation A (Pre-1980)
  mutagenic call: active; positive
[2]
  mutagenic call: active; positive
Species/Cell Type: Drosophila melanogaster, Sex: Male, Assay Type: Heritable translocation test, chromosome aberrations, Assay Code: DHT+, Evaluation Type: Evaluation A (Pre-1980)
  mutagenic call: active; positive
[3]
  mutagenic call: active; positive

## O=C1c2ccccc2C(=O)C1c1ccc2cc(S(=O)(=O)O)cc(S(=O)(=O)O)c2n1
[4]
  mutagenic call: no conclusion

## O=c1[nH]cccc1[N+](=O)[O-]
[5]
  mutagenic call: active; positive

## CC(=O)O[C@]1(C(C)=O)CC[C@H]2[C@@H]3C=C(Cl)C4=CC(=O)[C@@H]5C[C@@H]5[C@]4(C)[C@H]3CC[C@@]21C
Species/Cell Type: Human, Sex: Male, Assay Type: Sperm morphology, Assay Code: SPH+, Evaluation Type: Evaluation A (Pre-1980)
  mutagenic call: active; positive

## O=NN1CCC(O)CC1
[6]
  mutagenic call: no conclusion
Species/Cell Type: Drosophila melanogaster, Assay Type: Aneuploidy, whole sex chromosome loss, chromosome aberrations, Assay Code: DACT, Evaluation Type: Evaluation A (Pre-1980)
  mutagenic call: no conclusion
Species/Cell Type: Drosophila melanogaster, Assay Type: Sex-linked recessive lethal gene mutation, Assay Code: SRLT, Evaluation Type: Evaluation A (Pre-1980)
  mutagenic call: no conclusion
[7]
  mutagenic call: active; positive

## C1=Cc2c(ccc3c2ccc2ccccc23)C1
[7]
  mutagenic call: active; positive

## [CH3][Hg][O]C(C)=O
Species/Cell Type: Mammalian polychromatic erythrocytes, Assay Type: Micronucleus test, chromosome aberrations, Assay Code: MNTT, Evaluation Type: Evaluation A (Pre-1980)
  mutagenic call: no conclusion
Species/Cell Type: Mouse, Sex: Male, Assay Type: Sperm morphology, Assay Code: SPI-, Evaluation Type: Evaluation A (Pre-1980)
  mutagenic call: inactive; negative

## CC(=O)[O-].CC(=O)[O-].[Co+2]
[8]
  mutagenic call: active; positive

## COc1ccc2c(ccc3c4c(ccc32)C(=O)CC4)c1
[9]
  mutagenic call: no conclusion

## OCl
Species/Cell Type: Escherichia coli polA (W3119 vs P3478), Assay Type: Rec-assay, DNA effects (bacterial DNA repair), Assay Code: RE1+, Evaluation Type: Evaluation A (Pre-1980)
  mutagenic call: active; positive
Species/Cell Type: Human lymphocytes or leukocytes, Assay Type: Chromosome aberrations in vitro, Assay Code: CY7+D, Dose Response: With dose response, Evaluation Type: Evaluation A (Pre-1980)
  mutagenic call: active; positive
Species/Cell Type: Human, Assay Type: Sister-chromatid exchange (SCE) in vitro, Assay Code: SC1+, Evaluation Type: Evaluation B (Post-1980)
  mutagenic call: active; positive
Species/Cell Type: Mammalian polychromatic erythrocytes, Assay Type: Micronucleus test, chromosome aberrations, Assay Code: MNTT, Evaluation Type: Evaluation B (Post-1980)
  mutagenic call: no conclusion
Species/Cell Type: Nonhuman, Assay Type: Chromosome aberrations in vitro, Assay Code: CY&+D, Dose Response: With dose response, Evaluation Type: Evaluation A (Pre-1980)
  mutagenic call: active; positive
[9]
  mutagenic call: no conclusion

## Oc1cccc(O)c1O
[10]
  mutagenic call: active; positive
[11]
  mutagenic call: active; positive

## Nc1ccc(-c2ccc(N)c(Cl)c2)cc1Cl
Species/Cell Type: Fischer rat embryo (RLV/1706) cells, Assay Type: Cell transformation, viral enhanced, Assay Code: CTR+, Evaluation Type: Evaluation A (Pre-1980)
  mutagenic call: active; positive
Species/Cell Type: Human diploid fibroblasts, Assay Type: Unscheduled DNA synthesis (UDS) in vitro, DNA effects, Assay Code: UDHT, Evaluation Type: Evaluation A (Pre-1980)
  mutagenic call: no conclusion
[11]
  mutagenic call: active; positive
Species/Cell Type: Nonhuman, Assay Code: CCG+, Evaluation Type: Evaluation A (Pre-1980)
  call: active; positive
[7]
  mutagenic call: active; positive
[5]
  mutagenic call: active; positive
[8]
  mutagenic call: active; positive

## O=C1C(N2CC2)=C(N2CC2)C(=O)C(N2CC2)=C1N1CC1
[6]
  mutagenic call: no conclusion
Species/Cell Type: Drosophila melanogaster, Assay Type: Aneuploidy, whole sex chromosome loss, chromosome aberrations, Assay Code: DAC+M, Evaluation Type: Evaluation A (Pre-1980)
  mutagenic call: active; positive
[2]
  mutagenic call: active; positive
[12]
  mutagenic call: active; positive
Species/Cell Type: Neurospora crassa, Assay Type: Reverse gene mutation, Assay Code: NER+, Evaluation Type: Evaluation A (Pre-1980)
  mutagenic call: active; positive

## CN1CCN(CCCN2c3ccccc3Sc3ccc(C(F)(F)F)cc32)CC1
Species/Cell Type: Hordeum vulgare (barley), Assay Type: Chromosome aberrations, Assay Code: HOC+, Evaluation Type: Evaluation A (Pre-1980)
  mutagenic call: active; positive
[11]
  mutagenic call: active; positive

## CN(C)C(=S)SC(=S)N(C)C
[13]
  mutagenic call: active; positive

## CNC(=O)CSP(=S)(OC)OC
[10]
  mutagenic call: active; positive
[4]
  mutagenic call: no conclusion
Species/Cell Type: Drosophila melanogaster, Assay Type: Sex-linked recessive lethal gene mutation, Assay Code: SRL-, Evaluation Type: Evaluation A (Pre-1980)
  mutagenic call: inactive; negative
[14]
  mutagenic call: active; positive
[13]
  mutagenic call: active; positive
Species/Cell Type: Nonhuman, Assay Code: CCG-, Evaluation Type: Evaluation A (Pre-1980)
  call: inactive; negative
Species/Cell Type: Nonhuman, Assay Type: Sister-chromatid exchange (SCE) in vitro, Assay Code: SC2+, Evaluation Type: Evaluation B (Post-1980)
  mutagenic call: active; positive
Species/Cell Type: Saccharomyces cerevisiae, Assay Type: Mitotic recombination or gene conversion, Assay Code: YEC+, Evaluation Type: Evaluation A (Pre-1980)
  mutagenic call: active; positive
[3]
  mutagenic call: active; positive

## S=C=Nc1cccc2ccccc12
Species/Cell Type: Escherichia coli polA (W3110 vs P3478), Assay Type: Rec-assay, DNA effects (bacterial DNA repair), Assay Code: RE2-, Evaluation Type: Evaluation A (Pre-1980)
  mutagenic call: inactive; negative
Species/Cell Type: Escherichia coli polA (W3119 vs P3478), Assay Type: Rec-assay, DNA effects (bacterial DNA repair), Assay Code: RE1T, Evaluation Type: Evaluation A (Pre-1980)
  mutagenic call: no conclusion
Species/Cell Type: Mouse (BALB/c-3T3) cells, Assay Type: Cell transformation, Assay Code: CTB+D, Dose Response: With dose response, Evaluation Type: Evaluation A (Pre-1980)
  mutagenic call: active; positive
Species/Cell Type: Nonhuman, Assay Code: CCGT, Evaluation Type: Evaluation A (Pre-1980)
  call: no conclusion
Species/Cell Type: Saccharomyces cerevisiae, Assay Type: Mitotic recombination or gene conversion, Assay Code: YEH-, Evaluation Type: Evaluation A (Pre-1980)
  mutagenic call: inactive; negative
Species/Cell Type: Salmonella typhimurium, Assay Type: Forward and reverse gene mutation, host-mediated assay, Assay Code: HMA-, Evaluation Type: Evaluation A (Pre-1980)
  mutagenic call: inactive; negative
Species/Cell Type: Syrian hamster embryo (SHE) cells, Assay Type: Cell transformation, clonal assay, Assay Code: CTC-, Evaluation Type: Evaluation A (Pre-1980)
  mutagenic call: inactive; negative

## NP(=S)(N1CC1)N1CC1
[15]
  mutagenic call: active; positive
[14]
  mutagenic call: active; positive
Species/Cell Type: Nonhuman, Assay Type: Sister-chromatid exchange (SCE) in vitro, Assay Code: SC2+D, Dose Response: With dose response, Evaluation Type: Evaluation B (Post-1980)
  mutagenic call: active; positive

## C/C=C/c1ccccc1
[15]
  mutagenic call: active; positive
[14]
  mutagenic call: active; positive

## CNN
Species/Cell Type: Escherichia coli WP2 UVRA, Assay Type: Tryptophan reverse gene mutation, Assay Code: WPU+, Evaluation Type: Evaluation A (Pre-1980)
  mutagenic call: active; positive
Species/Cell Type: Human diploid fibroblasts, Assay Type: Unscheduled DNA synthesis (UDS) in vitro, DNA effects, Assay Code: UDH-, Evaluation Type: Evaluation A (Pre-1980)
  mutagenic call: inactive; negative
Species/Cell Type: Nonhuman, Assay Code: CCG+L, Evaluation Type: Evaluation A (Pre-1980)
  call: active; positive
Species/Cell Type: Rodents, Sex: Male, Assay Type: Dominant lethal test, Assay Code: DLT-, Evaluation Type: Evaluation A (Pre-1980)
  mutagenic call: inactive; negative
[1]
  mutagenic call: inactive; negative
[7]
  mutagenic call: active; positive

## Nc1nc(NO)c2[nH]cnc2n1
Species/Cell Type: Escherichia coli WP2, Assay Type: Tryptophan reverse gene mutation, Assay Code: WP2T, Evaluation Type: Evaluation A (Pre-1980)
  mutagenic call: no conclusion
Species/Cell Type: Escherichia coli WP2 UVRA, Assay Type: Tryptophan reverse gene mutation, Assay Code: WPUT, Evaluation Type: Evaluation A (Pre-1980)
  mutagenic call: no conclusion
[12]
  mutagenic call: active; positive

## CCCCCCCCO
Species/Cell Type: Nonhuman, Assay Type: Sister-chromatid exchange (SCE) in vitro, Assay Code: SC2T, Evaluation Type: Evaluation B (Post-1980)
  mutagenic call: no conclusion

## CC(=O)Nc1ccc(CCc2ccccc2)cc1
[9]
  mutagenic call: no conclusion
